Experimental data: PMC7072329, “Discovery of Kynurenines Containing Oligopeptides as Potent Opioid Receptor Agonists” (Biomolecules, 2020)
Where two headings read alike, the source gives them in different places. Where a SMILES comes first, the peptide text is derived from it. [ ]: non-standard residue; d: D form. Kyn = Nc1ccccc1C(=O)C[C@H](N)C(=O)O

What was measured:
CD-1 male mice [1] = experiment: tail flick test; assay type: in vivo; conditions: i.c.v., 10 μg/10 μL, 15 to 120 min
Description: (§1) In our experiments, we used CD-1 male mice (Harlan, Italy, 25–30 g) maintained in colony, housed in cages (7 mice per cage) under standard light/dark cycle (from 7:00 a.m. to 7:00 p.m.), temperature (21 ± 1 °C) and relative humidity (60% ± 10%) for at least 1 week. Food and water were available ad libitum. The Service for Biotechnology and Animal Welfare of the Istituto Superiore di Sanità and the Italian Ministry of Health authorized the experimental protocol according to Legislative Decree 26/14.
DMSO was purchased from Merck (Rome, Italy). Peptides solutions were freshly prepared using saline containing 0.9% NaCl and DMSO in the ratio DMSO/saline 1:5 v/v every experimental day. […]
The tail flick latency was obtained using a commercial unit (Ugo Basile, Gemonio, Italy), consisting of an infrared radiant light source (100 W, 15 V bulb) focused onto a photocell utilizing an aluminum parabolic mirror. […] Radiant heat was focused 3–4 cm from the tip of the tail, and the latency (s) of the tail withdrawal to the thermal stimulus was recorded. […] The baseline latency was calculated as mean of three readings recorded before testing at intervals of 15 min and the time course of latency determined at 15, 30, 45, 60, 90, and 120 min after treatment. […]
Experimental data were expressed as mean ± s.e.m. […]

CD-1 male mice [2] = experiment: formalin test; assay type: in vivo; conditions: s.c. in hind paw, 100 μg/20 μL, 15 min before formalin
Description: as §1
DMSO was purchased from Merck (Rome, Italy). Peptides solutions were freshly prepared using saline containing 0.9% NaCl and DMSO in the ratio DMSO/saline 1:5 v/v every experimental day. These solutions were injected at a volume of 10 μL/mouse for intracerebroventricular (i.c.v.) administrations or at a volume of 20 μL/mouse for subcutaneous administrations.
In the formalin test, the injection of a dilute solution of formalin (1%, 20 μL/paw) into the dorsal surface of the mouse hind paw evoked biphasic nociceptive behavioral responses, such as licking, biting the injected paw, or both, occurring from 0 to 10 min after formalin injection (the early phase) and a prolonged phase, occurring from 15 to 40 min (the late phase). Before the test, mice were individually placed in a Plexiglas observation cage (30 × 14 × 12 cm) for one hour, to acclimatize to the testing environment. The total time the animal spent licking or biting its paw during the early and late phase of formalin-induced nociception was recorded.
Experimental data were expressed as mean ± s.e.m. In the tail flick test, significant differences among the groups were evaluated with two-way ANOVA followed by Sidak’s multiple comparisons test. Formalin test data were analyzed by using one-way ANOVA, followed by Holm–Sidak’s multiple comparisons test. […] Statistical significance was set at p < 0.05. The data and statistical analysis comply with the recommendations on experimental design and analysis in pharmacology.
Early phase represents the formalin-induced nociceptive behavior recorded from 0 to 10 min after formalin injection; late phase is for the formalin-induced nociceptive behavior recorded from 15 to 40 min after formalin injection. V is for vehicle-treated animals. Statistical analysis: one-way ANOVA followed by Holm–Sidak’s multiple comparisons test. ** is for p < 0.01 and *** is for p < 0.001 vs. V. n = 7.

[3] = design: method as in PMID 21598333; conditions: cited from earlier work
NMDA receptor [4] = experiment: [3H]MK-801 competition binding, rat brain membrane; conditions: read-out: Ki + S.E.M., displacement of [3H]MK-801
G-protein [5] = experiment: functional [35S]GTPγS binding, rat brain membrane homogenates; assay type: biochemical; conditions: for Potency Log EC50 ± S.E.M. / Maximal Stimulation (Efficacy) Emax ± S.E.M.: dose-response curves; for Maximal Stimulation (Efficacy) Emax ± S.E.M.: basal = 100%; for Emax + S.E.M., Ligand: ligand alone, bar graphs Figure S3
Description: (§2) Rats and guinea pigs were decapitated, and their brains were quickly removed. The brains were used for membrane preparation following the procedure reported by Benyhe for binding and [^35S]GTPγS binding experiments, in agreement with the protocol of Zádor et al..
(§3) Homogenization of brains was performed in 30 volumes (v/w) of ice-cold 50 mM Tris-HCl pH 7.4 buffer with a Teflon-glass Braun homogenizer at 1500 rpm. The centrifuge was settled at 18,000 rpm for 20 min at 4 °C, the resulting supernatant discarded, and the pellet taken up in the original volume of Tris-HCl buffer. Incubation of homogenate at 37 °C for 30 min was performed in a shaking water-bath. Five volumes of 50 mM Tris-HCl pH 7.4 buffer were used to suspend the final pellet at −80 °C. For the [^35S]GTPγS binding experiments, the brains were homogenized with a Dounce in 5 volumes (v/w) of ice-cold TEM (Tris-HCl, EGTA, MgCl2) at −80 °C. The protein content of the membrane preparation was determined by the method of Bradford, BSA being used as a standard.
(§4) The functional [^35S]GTPγS binding experiments were performed as previously described. Briefly the membrane homogenates were incubated at 30 °C for 60 min in Tris-EGTA buffer (pH 7.4) composed of 50 mM Tris-HCl, 1 mM EGTA, 3 mM MgCl2, 100 mM NaCl, containing 20 MBq/0.05 cm^3 [^35S]GTPγS (0.05 nM) and increasing concentrations (10^−10 to 10^−5 M) of ligands. The experiments were performed in the presence of excess GDP (30 μM) in a final volume of 1 mL. Total binding was measured in the absence of test compounds, non-specific binding was determined in the presence of 10 μM unlabeled GTPγS. The reaction was terminated by rapid filtration under vacuum and washed three times with 5 mL ice-cold 50 mM Tris-HCl (pH 7.4) buffer through Whatman GF/B glass fibers. The radioactivity of the filters was detected in an UltimaGold^TM MV aqueous scintillation cocktail with a Packard Tricarb 2300TR liquid scintillation counter.
(§5) Experimental data are presented as means ± S.E.M. Sigmoid dose-response curves were fitted with GraphPad Prism 5.0 (GraphPad Prism Software Inc., San Diego, CA, USA). An unpaired t-test with two-tailed p value was performed to determine the significance level. In the competition binding assays, the ‘One site competition’ fitting was used to establish the equilibrium binding affinity (Ki value).
[35S]GTPγS binding assay in rat brain membrane homogenates. Figure S2 represents the specific binding of [35S]GTPγS in percentage in presence of increasing concentrations (10-10 - 10^-5 M) of the indicated ligands. “Total” on the x-axis indicates the basal activity of the monitored G-protein, which is measured in the absence of the ligands and represents the total specific binding of [35S]GTPγS. The level of basal activity was defined as 100% and it is presented with a dotted line. Points represent means ± S.E.M. for at least three experiments […]
(§6) Figure S3. The effect of novel oligopeptides on G-protein activity in [35S]GTPγS binding assays in the absence or presence of the selective MOR antagonist cyprodime (Cyp) and the selective DOR antagonist naltrindole (NTI) in rat brain membrane homogenates (Figure A) and the selective KOR antagonist norbinaltorphine (nor-BNI) in guinea pig brain membrane homogenates (Figure B). The level of basal activity was defined as 100% and it is presented with a dotted line. Points represent means ± S.E.M. for at least three experiments performed

κ-opioid receptor = target: T1, κ-opioid receptor (Cavia porcellus, UniProt P41144); experiment: biochemical; assay type: binding; conditions: KOR; guinea pig brain membrane; from IC50 by Cheng–Prusoff; read-out: Ki + S.E.M., displacement of [3H]HS665
T1 construct: aliquots of frozen rat and guinea pig brain membrane homogenates were thawed and suspended in 50 mM Tris-HCl buffer; from tissue; host or cells: guinea pig brain membrane homogenate
T1 sequence (P41144 whole entry): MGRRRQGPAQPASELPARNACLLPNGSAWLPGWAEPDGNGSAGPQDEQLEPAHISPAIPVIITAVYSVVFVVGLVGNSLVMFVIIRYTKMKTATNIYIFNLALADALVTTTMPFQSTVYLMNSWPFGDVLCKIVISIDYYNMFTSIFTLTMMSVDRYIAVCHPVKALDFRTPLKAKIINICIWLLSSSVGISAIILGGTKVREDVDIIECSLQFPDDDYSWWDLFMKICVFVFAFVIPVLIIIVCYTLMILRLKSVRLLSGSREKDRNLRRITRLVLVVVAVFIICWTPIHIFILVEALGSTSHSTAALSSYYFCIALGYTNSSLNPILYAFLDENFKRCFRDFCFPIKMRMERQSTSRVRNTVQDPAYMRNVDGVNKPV

G-protein [6] = experiment: functional [35S]GTPγS binding, guinea pig brain membrane homogenates; assay type: biochemical; conditions: ligand alone
Description: as §2, §3, §4, §5
as §6, with “The level of basal activity was defined as 100% and it is presented with a dotted line. Points represent means ± S.E.M. for at least three experiments performed” left out

δ-opioid receptor = target: T2, δ-opioid receptor (Rattus norvegicus, UniProt P33533); experiment: biochemical; assay type: binding; conditions: DOR; rat brain membrane; from IC50 by Cheng–Prusoff; read-out: Ki + S.E.M., displacement of [3H]Ile5,6Delt II
T2 construct: aliquots of frozen rat and guinea pig brain membrane homogenates were thawed and suspended in 50 mM Tris-HCl buffer; from tissue; host or cells: Wistar rat brain membrane homogenate
T2 sequence (P33533 whole entry): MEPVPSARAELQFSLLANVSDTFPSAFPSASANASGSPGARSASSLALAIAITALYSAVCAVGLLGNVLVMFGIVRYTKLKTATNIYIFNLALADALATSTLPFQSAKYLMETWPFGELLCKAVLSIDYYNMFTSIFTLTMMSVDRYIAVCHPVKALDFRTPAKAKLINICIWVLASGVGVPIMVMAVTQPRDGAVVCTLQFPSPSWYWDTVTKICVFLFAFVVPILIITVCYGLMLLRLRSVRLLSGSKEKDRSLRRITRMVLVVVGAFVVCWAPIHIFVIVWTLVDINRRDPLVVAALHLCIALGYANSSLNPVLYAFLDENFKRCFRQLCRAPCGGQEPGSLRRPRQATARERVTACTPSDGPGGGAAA

μ, δ, κ-receptors = tested on: μ, δ, κ-receptors; design: method as in PMID 25478797; conditions: cited from earlier work
NMDA receptor [7] = tested on: NMDA receptor; design: method as in earlier work; conditions: cited from earlier work
[8] = NMDA system, rat brain membrane, from IC50 by Cheng–Prusoff

**Q.** With `C[C@@H](NC(=O)[C@@H](N)Cc1ccc(O)cc1)C(=O)NCC(=O)N(C)[C@@H](Cc1ccccc1)C(=O)NCCO` [DAMGO, Tyr-D-Ala-Gly-(NMe)Phe-Gly-ol, reference compound] as the compound, how does the “effect on time of response to thermal nociceptive stimuli (tail flick)” value (CD-1 male mice [1]) read?
**A.** Its value is “greatly increase the time of response to thermal nociceptive stimuli”.

**Q.** And the “formalin-induced nociceptive behavior, early phase” value (CD-1 male mice [2]; 0 to 10 min)?
**A.** The value was “reduction of the nociceptive behavior both early and late”.

**Q.** And the “formalin-induced nociceptive behavior, late phase” value (CD-1 male mice [2]; 15 to 40 min)?
**A.** The value was “reduction of the nociceptive behavior both early and late”.

**Q.** For FP-Kyn-L-NH2, which “concentration with opioid activity” value [3] is on record?
**A.** The value was 10^−7 M.

**Q.** Which Ki (NMDA receptor [4]; [8]) does the source give for `Nc1ccccc1C(=O)C[C@H](N)C(=O)O` [L-kyn, L-kynurenine, reference compound] here?
**A.** The Ki was greater than 10 µM.

**Q.** With `NC(=O)[C@H](Cc1ccccc1)NC(=O)[C@H](CC(=O)c1ccccc1N)NC(=O)[C@@H]1CCCN1C(=O)[C@@H](N)Cc1ccc(O)cc1` [Peptide K2] as the compound, how does the “Potency Log EC50 ± S.E.M.” value (G-protein [5]) read?
**A.** Its value is −7.535 ± 0.354.

**Q.** And the “Maximal Stimulation (Efficacy) Emax ± S.E.M.” value (“Maximal Stimulation” below) (G-protein [5])?
**A.** Its value is 121.6 ± 2.5%.

**Q.** What about the “Emax + S.E.M., Ligand” value (G-protein [5]) of the same compound?
**A.** Its value is 129.9 ± 8.2%.

**Q.** And the Ki (κ-opioid receptor)?
**A.** The Ki was 1.043 ± 0.0003 µM.

**Q.** What about the “Emax + S.E.M., Ligand” value (G-protein [6]) of the same compound?
**A.** Its value is 92.8 ± 2.0%.

**Q.** What about the Ki (δ-opioid receptor) of the same compound?
**A.** Its Ki is greater than 10 µM.

**Q.** And the Ki (NMDA receptor [4])?
**A.** The Ki was greater than 10 µM.

**Q.** Which results are given for `O=C(O)c1cc(=O)c2ccccc2[nH]1` [KYNA, kynurenic acid]?
**A.** direct binding to μ, δ, κ-receptors in vitro (μ, δ, κ-receptors): did not directly bind; Ki (NMDA receptor [4]; [8]): > 10 µM; affinity for NMDA receptor (NMDA receptor [7]): micromolar affinity

**Q.** Which “Potency Log EC50 ± S.E.M.” value (G-protein [5]) does the source give for `COC(=O)[C@H](CC(=O)c1ccccc1N)NC(=O)[C@H](Cc1ccccc1)NC(=O)CNC(=O)[C@@H](C)NC(=O)[C@@H](N)Cc1ccc(O)cc1` [Peptide K4] (H-Y[dA]GF[Kyn]-OMe) here?
**A.** Its value is −6.073 ± 0.172.

**Q.** And the “Maximal Stimulation” value (G-protein [5])?
**A.** The value was 155.5 ± 4.8%.

**Q.** And the “Emax + S.E.M., Ligand” value (G-protein [5])?
**A.** Its value is 160.6 ± 5.7%.

**Q.** What about the Ki (κ-opioid receptor) of the same compound?
**A.** Its Ki is greater than 10 µM.

**Q.** And the “Emax + S.E.M., Ligand” value (G-protein [6])?
**A.** Its value is 125.2 ± 2.0%.

**Q.** What about the Ki (NMDA receptor [4]) of the same compound?
**A.** The Ki was greater than 10 µM.

**Q.** With `CN(C)CCNC(=O)c1cc(=O)c2ccccc2[nH]1.Cl` [KYNA1] as the compound, how does the “direct binding to μ, δ, κ-receptors in vitro” value (μ, δ, κ-receptors) read?
**A.** The value was “did not directly bind”.

**Q.** Which “Potency Log EC50 ± S.E.M.” value (G-protein [5]) does the source give for `NC(=O)[C@H](CC(=O)c1ccccc1N)NC(=O)[C@H](Cc1ccccc1)NC(=O)[C@@H]1CCCN1C(=O)[C@@H](N)Cc1ccc(O)cc1` [Peptide K3] (H-YPF[Kyn]-NH2) here?
**A.** Its value is −6.993 ± 0.422.

**Q.** And the “Maximal Stimulation” value (G-protein [5])?
**A.** Its value is 114.0 ± 2.1%.

**Q.** What about the “Emax + S.E.M., Ligand” value (G-protein [5]) of the same compound?
**A.** Its value is 118.9 ± 3.0%.

**Q.** And the Ki (κ-opioid receptor)?
**A.** The Ki was greater than 10 µM.

**Q.** What about the “Emax + S.E.M., Ligand” value (G-protein [6]) of the same compound?
**A.** The value was 95.2 ± 2.2%.

**Q.** And the Ki (δ-opioid receptor)?
**A.** The Ki was 0.159 ± 0.0016 µM.

**Q.** And the Ki (NMDA receptor [4])?
**A.** The Ki was greater than 10 µM.

**Q.** Which Ki (κ-opioid receptor) does the source give for `C[C@@H](NC(=O)[C@@H](N)Cc1ccc(O)cc1)C(=O)NCC(=O)N[C@@H](Cc1ccccc1)C(=O)N[C@@H](CC(=O)c1ccccc1N)C(=O)O` [Peptide K5] (H-Y[dA]GF[Kyn]-OH) here?
**A.** Its Ki is greater than 10 µM.
